In paper PMC3077598 (The Journal of Biological Chemistry, 2011):

What was measured:
TASK-1 [1] = biological target: TASK-1 (Homo sapiens, UniProt O14649, T199A); experiment: two-electrode voltage clamp, Xenopus oocytes; format: cell-based; conditions: read-out: % inhibition at 400 nM
TASK-1 [2] = biological target: TASK-1 (Homo sapiens, UniProt O14649, T93A); experiment: two-electrode voltage clamp, Xenopus oocytes; format: cell-based; conditions: read-out: % inhibition at 400 nM
Chain of TASK-1 (Homo sapiens, UniProt O14649, T93A) (O14649 whole entry T93A): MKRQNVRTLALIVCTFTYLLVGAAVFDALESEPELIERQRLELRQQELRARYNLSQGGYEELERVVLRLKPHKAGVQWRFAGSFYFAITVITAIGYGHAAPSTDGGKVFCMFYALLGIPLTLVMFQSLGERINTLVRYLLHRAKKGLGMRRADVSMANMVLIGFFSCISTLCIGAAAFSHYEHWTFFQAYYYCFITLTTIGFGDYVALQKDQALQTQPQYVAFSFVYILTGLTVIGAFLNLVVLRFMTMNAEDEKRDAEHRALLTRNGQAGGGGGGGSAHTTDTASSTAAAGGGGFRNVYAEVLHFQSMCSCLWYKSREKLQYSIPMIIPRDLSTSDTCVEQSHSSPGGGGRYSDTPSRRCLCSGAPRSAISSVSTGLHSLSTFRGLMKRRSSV

Chain of TASK-1 (Homo sapiens, UniProt O14649, T199A) (O14649 whole entry T199A): as the sequence (O14649 whole entry T93A) above, with A93T, T199A counted along it

COc1ccc(CC(=O)NCc2ccccc2-c2ccccc2C(=O)NCc2ccc(F)cc2F)cc1 [A1899]
inhibition at 0.4 µM (TASK-1 [1]): 36.4 ± 6.4%
inhibition at 0.4 µM (TASK-1 [2]): 26.4 ± 6.4%
